Experimental data from BindingDB's records for doi:10.1021/jm970742b (University of Pennsylvania, 1998).

Target: Sodium-dependent dopamine transporter (Rattus norvegicus, UniProt P23977)
Assay: In vitro binding affinity towards dopamine transporter in rat striatal homogenate with [125I]IPT as the radioligand

Sequence of Sodium-dependent dopamine transporter (P23977 whole entry): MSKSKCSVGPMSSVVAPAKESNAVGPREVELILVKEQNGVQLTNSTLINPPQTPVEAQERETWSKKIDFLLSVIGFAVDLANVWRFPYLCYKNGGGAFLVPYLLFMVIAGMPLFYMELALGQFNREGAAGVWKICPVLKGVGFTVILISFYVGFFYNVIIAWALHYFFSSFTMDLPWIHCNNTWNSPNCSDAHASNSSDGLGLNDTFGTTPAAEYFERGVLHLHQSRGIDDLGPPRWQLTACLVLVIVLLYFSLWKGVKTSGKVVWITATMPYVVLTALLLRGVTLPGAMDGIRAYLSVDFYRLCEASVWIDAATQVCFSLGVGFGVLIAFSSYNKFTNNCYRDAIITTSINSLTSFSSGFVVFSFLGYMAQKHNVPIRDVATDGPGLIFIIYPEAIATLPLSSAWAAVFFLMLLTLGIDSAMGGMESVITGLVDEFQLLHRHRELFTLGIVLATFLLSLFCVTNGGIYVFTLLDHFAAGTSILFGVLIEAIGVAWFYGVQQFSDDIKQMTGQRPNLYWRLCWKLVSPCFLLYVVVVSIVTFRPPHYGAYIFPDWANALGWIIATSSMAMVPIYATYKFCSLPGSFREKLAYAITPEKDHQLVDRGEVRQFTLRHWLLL

Row | Structure (SMILES) | Ki [nM]
1 | CN1C2CCC1[C@H](c1ccc(Cl)cc1)[C@H]2CN1CC[S][Re]2(=[O])[S]CC[N]2CC1 (stereo partly drawn) [2-[[2-[[[3-(4-chlorophenyl)-8-methyl-8-azabicyclo[3.2.1]oct-2-yl]methyl](2-mercaptoethyl)amino]ethyl]amino]ethanethiolato(3-)-oxo-[1R-(exo-exo)]-;2-{Oxo[N(R),N-bis(2-mercaptoethyl)ethylenediaminato]rhenium(V)methyl}-3-(4-chlorophenyl)tropane] | 13.9
2 | CN1C2CCC1[C@H](c1ccc(Cl)cc1)[C@@H]2CN1CC[S][Re]2(=[O])[S]CC[N]2CC1 (stereo partly drawn) [2-[[2-[[[3-(4-chlorophenyl)-8-methyl-8-azabicyclo[3.2.1]oct-2-yl]methyl](2-mercaptoethyl)amino]ethyl]amino]ethanethiolato(3-)-oxo-[1R-(exo-exo)]-;2-{Oxo[N(S),N-bis(2-mercaptoethyl)ethylenediaminato]rhenium(V)methyl}-3-(4-chlorophenyl)tropane] | 8.42
